In article PMC11208559 (Scientific Reports, 2024):
Converted amounts (≈) assume the structure as drawn. Where a name gives a salt, the structure may show the parent alone.

Key:
[1] = molecular target: T1, human delta opioid receptor (Homo sapiens, UniProt P41143); assay: Competition radioligand binding vs 3H-diprenorphine, delta opioid receptor; conditions: up to a 10 μM concentration
T1 construct: membrane protein

CD-1 mice [2] = assay: Morphine anti-nociceptive tolerance and tolerance rescue (tail flick); assay type: in vivo; conditions: tail flick; for rescue of established morphine tolerance, systemic inhibitor: 3 days twice daily 10 mg/kg morphine s.c., 1 mg/kg i.v. on day 3, 24 h, 10 mg/kg morphine s.c.
Procedure: (§1) Pre-injection tail-flick baselines were determined in a 52 °C tail-flick assay with a 10-s cutoff time (method also reported in Ref.[13]). […] No animals were excluded from these studies.

physchem [3] = assay type: physicochemical
Procedure: Distribution coefficient (LogD) was determined by the method of Wilson et al.[30]. Briefly, 5 µL volumes of test compounds diluted in DMSO were added to a mixture of equal volumes of 50 mM phosphate buffer and 1-octanol. The compounds were assayed using a 50 nM concentration in order to limit compound precipitation and to ensure that the assay values were maintained within the dynamic range of the LC–MS/MS instrumentation. Samples were vortex mixed at 800 rpm for 24 h. Subsequent to centrifugation at 14,000 rpm for 30 min, 1 µL of each layer was analyzed by LC–MS/MS. LogD was calculated using the peak areas obtained from each layer.
LC − MS/MS analysis was conducted using an Agilent (Santa Clara, CA) 6460 triple quadrupole mass spectrometer coupled with an Agilent liquid chromatography (LC) system. The LC system consists of a binary pump, degasser, column heater, and autosampler. Chromatographic separation was performed on a Waters Atlantis T3 3 µm 3.0 × 50 mm analytical column using a ballistic gradient of mobile phase consisting of 0.1% formic acid in water (A) and 0.1% formic acid in acetonitrile (B) at a flow rate of 0.75 mL/min. The mobile phase was heated to a temperature of 45 °C.

human mu opioid receptor = molecular target: T2, human mu opioid receptor (Homo sapiens, UniProt P35372); assay type: binding; conditions: up to a 10 μM concentration
T2 construct: membrane protein

[4] = molecular target: T3, human kappa opioid receptor (Homo sapiens, UniProt P41145); assay: Competition radioligand binding vs 3H-diprenorphine, kappa opioid receptor; conditions: up to a 10 μM concentration
T3 construct: membrane protein

CD-1 mice [5] = conditions: mouse, in vivo
in vitro [6] = assay type: in vitro ADME, CD-1 mice; conditions: male, CD-1, mouse, microsomes
Procedure: (§2) Metabolic stability of lead compounds was assessed in vitro by the method of Di et al.[32]. Briefly, mouse liver microsomes (Corning Life Sciences, Woburn, MA) were isolated from CD-1 mice (male mice, 8 − 10 weeks of age). Assays were conducted using 0.123 mg/mL protein concentration (total protein concentration in the microsomal solution) and 1.0 μM drug concentration under incubation conditions of 37 °C. Metabolic stability was determined following 0, 5, 15, 30, and 60 min of incubation time. The samples were analyzed by reversed phase LC using a triple quadrupole mass spectrometer. Compound specific transitions of parent ion to product ion were monitored and percent remaining calculated based on peak area of 5 − 60 min time points (relative to time zero). Half-life calculations were determined using the formula t½ = − ln(2)/k, where k (min^−1) is the turnover rate constant (the slope) estimated from a log − linear regression of the percentage compound remaining versus time.
LC − MS/MS analysis was conducted using an Agilent (Santa Clara, CA) 6460 triple quadrupole mass spectrometer coupled with an Agilent liquid chromatography (LC) system. The LC system consists of a binary pump, degasser, column heater, and autosampler. […]

CD-1 mice [7] = assay: 52 °C tail-flick assay, morphine anti-nociception after Hsp90 inhibitor treatment; assay type: in vivo; conditions: for naloxone reversibility of inhibitor-enhanced morphine pain relief / A50 (morphine anti-nociceptive potency), tail flick, systemic inhibitor / effect of higher 10 mg/kg dose on morphine pain relief (tail flick) / A50 (morphine anti-nociceptive potency), tail flick: 24 h; for naloxone reversibility of inhibitor-enhanced morphine pain relief: 2 mg/kg naloxone i.p. 10 min; for A50 (morphine anti-nociceptive potency), tail flick, systemic inhibitor: 1 mg/kg inhibitor i.v., peak %MPE; for effect of higher 10 mg/kg dose on morphine pain relief (tail flick): 10 mg/kg i.v. vs 1 mg/kg i.v.
Procedure: as §1

in vitro [8] = assay type: in vitro ADME; conditions: male, human, microsomes
Procedure: as §2
Metabolic stability of the compounds in human liver microsomes was determined by the method described above using pooled human liver microsome preparations from 20 male donors (Corning Life Sciences, Woburn, MA). Assays were conducted as described above and the in vitro half-life of the compounds was calculated. […]

[9] = 1 and 10 mg/kg i.v.
CD-1 mice [10] = assay: Post-surgical paw incision, mechanical allodynia (von Frey), morphine anti-nociception; assay type: in vivo
Procedure: Mechanical thresholds were determined prior to surgery using calibrated von Frey filaments (Ugo Basile, Varese, Italy) with the up-down method and four measurements after the first response per mouse as in Ref.[27] and our previously published work (e.g. Ref.[28]). The mice were housed in a homemade apparatus with Plexiglas walls and ceiling and a wire mesh floor (3-inch wide 4-inch long 3-inch high with 0.25-inch wire mesh). The surgery was then performed by anesthesia with ~ 2% isoflurane in standard air, preparation of the left plantar hind paw with iodine and 70% ethanol, and a 5-mm incision made through the skin and fascia with a no. 11 scalpel. The muscle was elevated with curved forceps leaving the origin and insertion intact, and the muscle was split lengthwise using the scalpel. The wound was then closed with 5–0 polyglycolic acid sutures. Mice were then injected with inhibitor or Vehicle control and left to recover for 24 h. Our intrathecal (i.t.) injection protocol is reported in Refs.[13],[29]; briefly, the injection was made in awake and restrained animals with a 10 μL Hamilton syringe and 30 g needle (5–7 μL volume) between the L5-L6 vertebrae at a 45° angle, with placement validated by tail twitch. Since the injection was made through skin with no incision or other surgical intervention, repeated injection protocols were performed the same way. The next day, the mechanical threshold was again determined as described above. […] . No animals were excluded from these studies.

in vivo = conditions: CD-1, mouse, iv
physchem [11] = conditions: pH 6.8, aqueous buffer, thermodynamic from solid
CD-1 mice [12] = assay: Opioid induced constipation (fecal production over 6 h)
CD-1 mice [13] = assay: Conditioned place preference (morphine reward); conditions: Vehicle i.t. over 4 days with 3.2–10 mg/kg morphine s.c.; 95% CI in parentheses
CD-1 mice [14] = assay: HIV peripheral neuropathy (gp120), mechanical threshold, morphine anti-nociception; assay type: in vivo; conditions: Vehicle i.t. on day 20, 24 h, then morphine s.c.; %MPE; 95% CI in parentheses
Procedure: Mechanical threshold baselines were measured prior to any treatment on the left hind paw using von Frey filaments. HIV peripheral neuropathy was induced by intrathecal injection of gp120 IIIb protein (SPEED BioSystems, Gaithersburg, MD, Cat# YCP1549, 15 ng/μl in 0.1 M PBS and 0.1% BSA, 7-μl volume) using our previously established protocol[13] on days 1, 3, and 5. On day 20 a second mechanical threshold baseline was measured on the left hind paw using von Frey filaments and then KU-32 or Vehicle was injected i.t with a 24-h treatment time. […] . No animals were excluded from these studies.

[15] = 1 mg/kg i.v., 3.2 mg/kg morphine s.c., tail flick
[16] = then 1–5.6 mg/kg morphine s.c., 95% CI in parentheses
[17] = daily Vehicle i.t., twice daily 1–10 mg/kg morphine s.c., 95% CI in parentheses

## CCCc1cc2cc(-n3nc(C)c4c3CC(C)(C)CC4=O)cc(N3CCC(O)CC3)c2c(=O)[nH]1 [KUNB106]
[1]
  binding to delta opioid receptor (competition vs 3H-diprenorphine): did not find any binding
CD-1 mice [2]
  rescue of established morphine tolerance, systemic inhibitor: rescued established tolerance
Physchem [3]
  logD at 24 h: 2.26
Human mu opioid receptor
  binding to mu opioid receptor (competition vs 3H-diprenorphine): did not find any binding
[4]
  binding to kappa opioid receptor (competition vs 3H-diprenorphine): did not find any binding
CD-1 mice [5]
  effect on respiratory activity before and after morphine: no impact on respiratory activity before or after morphine
In vitro [6]
  half-life at 1 µM: 63 min
CD-1 mice [7]; [15]
  naloxone reversibility of inhibitor-enhanced morphine pain relief: fully naloxone-reversible
CD-1 mice [7]; [16]
  A50 (morphine anti-nociceptive potency), tail flick, systemic inhibitor: 1.7 (1.1–2.3) mg/kg
CD-1 mice [7]; then 3.2 mg/kg morphine s.c.
  effect of higher 10 mg/kg dose on morphine pain relief (tail flick): less benefit than 1 mg/kg
In vitro [8]
  half-life at 1 µM: 156 min

## COC(=O)c1c(O)cc(O)c(Cl)c1CCc1ccccc1Cc1ccc(F)cc1 [KUNG65]
[9]
  exposure in the spinal cord: very low exposure
[1]
  binding to delta opioid receptor (competition vs 3H-diprenorphine): no binding
CD-1 mice [2]
  rescue of established morphine tolerance, systemic inhibitor: rescued established tolerance
CD-1 mice [10]; 1 mg/kg inhibitor i.v., 24 h, then 1–3.2 mg/kg morphine s.c., peak %MPE, 95% CI in parentheses
  A50 (morphine anti-nociceptive potency), paw incision, systemic inhibitor: 0.9 (0.5–1.2) mg/kg
Physchem [3]
  logD at 24 h: 3.3
Human mu opioid receptor
  binding to mu opioid receptor (competition vs 3H-diprenorphine): no binding
[4]
  binding to kappa opioid receptor (competition vs 3H-diprenorphine): no binding
CD-1 mice [5]
  effect on respiratory activity before and after morphine: no effect on respiration before or after morphine injection
In vivo; 1 mg/kg
  AUC(0-inf): 0.245 µM·h
  Cmax: 418 nM
  Tmax: 4.98 min
  half-life: 36 min
In vivo; 10 mg/kg
  AUC(0-inf): 0.46 µM·h
  Cmax: 1070 nM
  Tmax: 4.98 min
  half-life: 38.4 min
In vitro [6]
  half-life at 1 µM: 32 min
CD-1 mice [7]; [15]
  naloxone reversibility of inhibitor-enhanced morphine pain relief: fully naloxone-reversible
CD-1 mice [7]; 1 mg/kg i.v., 48 h, then 3.2 mg/kg morphine s.c.
  effect on morphine tail flick anti-nociception 48 h after treatment: no effect
CD-1 mice [7]; [16]
  A50 (morphine anti-nociceptive potency), tail flick, systemic inhibitor: 1.9 (1.4–2.3) mg/kg
CD-1 mice [7]; then 3.2 mg/kg morphine s.c.
  effect of higher 10 mg/kg dose on morphine pain relief (tail flick): elevated morphine pain relief, it did so less than a 1 mg/kg dose
CD-1 mice [7]; Grp94 CRISPR i.t., 1 mg/kg i.v. on day 9, 24 h, 3.2 mg/kg morphine s.c., tail flick
  effect of spinal cord Grp94 CRISPR knockdown on benefit of systemic inhibitor: abolished the benefit
Physchem [11]
  solubility at 24 h: 0.074 µM (≈ 0.0307 µg/mL)
In vitro [8]
  half-life at 1 µM: 144 min

## CN1CC[C@]23c4c5ccc(O)c4O[C@H]2[C@@H](O)C=C[C@H]3[C@H]1C5 [morphine, Morphine sulfate pentahydrate, reference compound]
CD-1 mice [2]; [17]
  A50 of morphine, Day 1 of tolerance regimen: 5.2 (3.9–7.5) mg/kg
  A50 of morphine, Day 4 of tolerance regimen: 110 (30–6300) mg/kg
CD-1 mice [12]; 1 mg/kg morphine s.c.
  constipation compared to saline-injected controls: ~ 40%
CD-1 mice [12]; 3.2–10 mg/kg morphine s.c.
  constipation compared to saline-injected controls (plateau): ~ 70%
CD-1 mice [12]; Vehicle i.t., 24 h, then morphine s.c., 6-h AUC, %MPE, 95% CI in parentheses
  A50 (morphine constipation potency): 0.67 (0.32–0.94) mg/kg
CD-1 mice [10]; Vehicle i.t., 24 h, then morphine s.c., %MPE, 95% CI in parentheses
  A50 (morphine anti-nociceptive potency), paw incision: 2.4 (2.0–2.8) mg/kg
CD-1 mice [10]; Vehicle i.v. (control of KUNB106 experiment, Fig. S7B), then 1–3.2 mg/kg morphine s.c.
  A50 (morphine anti-nociceptive potency), paw incision: 2.5 (2.0–∞) mg/kg
CD-1 mice [10]; Vehicle i.v. (control of KUNG65 experiment, Fig. S6B), then 1–3.2 mg/kg morphine s.c.
  A50 (morphine anti-nociceptive potency), paw incision: 2.0 (1.4–3.0) mg/kg
CD-1 mice [13]
  A50 (morphine reward potency, CPP % Difference Score): 5.1 (2.7–7.7) mg/kg
CD-1 mice [7]; Vehicle i.t., then 1–10 mg/kg morphine s.c., %MPE, 95% CI in parentheses
  A50 (morphine anti-nociceptive potency), tail flick: 3.0 (2.5–3.7) mg/kg
CD-1 mice [7]; Vehicle i.v. (control of KUNB106 experiment, Fig. 9E), then 1–5.6 mg/kg morphine s.c.
  A50 (morphine anti-nociceptive potency), tail flick: 5.6 (4.4–∞) mg/kg
CD-1 mice [7]; Vehicle i.v. (control of KUNG65 experiment, Fig. 8F), then 1–5.6 mg/kg morphine s.c.
  A50 (morphine anti-nociceptive potency), tail flick: 3.6 (2.9–4.6) mg/kg
CD-1 mice [14]
  A50 (morphine anti-nociceptive potency), HIV neuropathy: 4.2 (3.7–4.8) mg/kg
